Data: PMC12657321, “Pre-clinical evaluation of a potent and effective Pin1-degrading agent in pancreatic cancer” (Molecular Therapy Oncology, 2025)
Non-standard residues stand in square brackets, D forms with d. Residues, ends and D or L forms follow the SMILES beside them. *: point of attachment. Trp(6-Cl) = N[C@@H](Cc1c[nH]c2cc(Cl)ccc12)C(=O)O; Pip = O=C(O)[C@@H]1CCCCN1; ClAc = O=C(CCl)*

Tests used:
[1] = Stability in plasma from Black 6-Cg mice; assay type: in vitro ADME; conditions: Black 6-Cg (B6-Cg), mouse, 37°C, up to 6 h, acetonitrile quench, LC-MS/MS
Method: (§1) A solution of a Pin1 inhibitor was spiked into blank plasma at 1 μg/mL in various solutions, including an aqueous buffer (1× phosphate-buffered saline; Fisher Scientific, Fair Lawn, NJ), human plasma (Innovative Research Inc., Novi, MI), wild-type mouse plasma (Innovative Research Inc., Novi, MI), plasma form esterase-deficient mice (City of Hope, Duarte, CA), and plasma from Black 6-Cg mice (City of Hope, Duarte, CA).
(§2) The spiked plasma samples were incubated at 37°C for up to 6 h. At each designated time point, a 20 μL aliquot of the incubation sample was removed and quenched in 100 μL of acetonitrile. At the end of the incubation, the quenched samples were vortexed and centrifuged for 10 min at 4°C and 20,000 × g. The resulting supernatant was reconstituted and analyzed by LC-MS/MS.
(§3) Table S2. Stability half-life of agents reported in Table 1 after incubation at 37 °C in various media. Acq represents aqueous buffer composed of 1x phosphate buffered saline (Fisher Scientific, Fair Lawn, NJ); human represents human plasma (Innovative Research Inc., Novi, MI); mouse wt represents wild type mouse plasma (Innovative Research Inc., Novi, MI); mouse ES1e represents plasma form esterase deficient mice (City of Hope, Duarte, CA); mouse B6-Cg represents plasma from black 6-Cg mice (City of Hope, Duarte, CA). See Figure 1 for the chemical structures of these compounds.
(§4) Compound Acq Human Mouse Mouse ES1e Mouse

[2] = Stability in aqueous buffer (1x PBS); assay type: physicochemical; conditions: 1x phosphate buffered saline, 1 μg/mL, 37°C, up to 6 h, acetonitrile quench, LC-MS/MS
Method: as §1, §2, §3, §4

[3] = Stability in plasma from esterase-deficient (ES1e) mice; assay type: in vitro ADME; conditions: mouse, 37°C, up to 6 h, acetonitrile quench, LC-MS/MS
Method: as §1, §2, §3, §4

[4] = Human plasma stability; assay type: in vitro ADME; conditions: 37°C, up to 6 h, acetonitrile quench, LC-MS/MS
Method: as §1, §2, §3, §4

[5] = Wild-type mouse plasma stability; assay type: in vitro ADME; conditions: 37°C, up to 6 h, acetonitrile quench, LC-MS/MS, values given in min, read-out: Stability half-life, Mouse WT (converted)
Method: as §1, §2, §3, §4

For `NC(=O)[C@H](Cc1c[nH]c2ccccc12)NC(=O)[C@@H]1CCCCN1C(=O)[C@H](Cc1c[nH]c2cc(Cl)ccc12)NC(=O)CCl` [158H9] (ClAc-[Trp(6-Cl)]-[Pip]-Trp-NH2), the half-life at 1 μg/mL [1] was > 5 h, the “Stability half-life, Acq (aqueous buffer)” value [2] was > 5 h and the half-life at 1 μg/mL [3] was > 5 h. For the same compound, the half-life at 1 μg/mL [4] was ~3 h and the half-life at 1 μg/mL [5] was ~0.5 h.

In the case of `NC(=O)[C@H](Cc1c[nH]c2ccc(F)cc12)NC(=O)[C@@H]1CCCCN1C(=O)[C@@H]1Cc2c([nH]c3ccccc23)CN1C(=O)CCl` [164A10], the half-life at 1 μg/mL [1] is reported as ~2.5 h, the “Stability half-life, Acq (aqueous buffer)” value [2] is reported as > 5 h and the half-life at 1 μg/mL [3] is reported as ~2.5 h. The half-life at 1 μg/mL [4] was ~2.5 h and the half-life at 1 μg/mL [5] was < 0.167 h.
